According to patent publication US5630978A, “Preparation of biologically active molecules by molecular imprinting” (Yissum Research Development Co. of The Hebrew University of …, priority 1995, dated 1997):

System: extracellular matrix (ECM) bound FGF
Assay: Release of extracellular matrix (ECM) bound FGF
Assay type: biochemical
Experimental: The polymers were tested according to the method of Vlodavsky [Vlodavsky, I., Bar-Shavit, R., Korner, G., and Foks, Z., Extracellular matrix-bound growth factors, enzymes, and plasma proteins, in Molecular and cellular aspects of basement membrane, Academic Press, 327-343 (1993)]. Release of ECM bound bFGF was low (15%) at the concentration range between 1 and 25 mg/ml for N-acryl-4-hydroxyproline based polymers. Under the same conditions, heparin released about 80% of the ECM bound bFGF at a concentration of 2 to 25 mg/ml.

## heparin
  released extracellular matrix (ECM) bound FGF: 80%
Concentration of 2 to 25 mg/ml
  Release of ECM bound bFGF: about 80%
